# Laboratory results reported in patent publication US20230321086A1, “METHODS AND MATERIALS FOR INHIBITING NICOTINAMIDE PHOSPHORIBOSYLTRANSFERASE ACTIVITY” (Universiy of Pittsburgh - Of the Commonwealth System of …, priority 2020, published 2023).
# pIC50: −log10 of the molar value.
# Target: NAMPT (Homo sapiens, UniProt P43490)
# Assay: Assay for in vitro NAMPT activity via NMN assessment
# Type: biochemical
# Settings: read-out: A: NAMPT enzyme inhibitory activity, IC50
# Description: The following were added to a well: 20 μL 2× test compound in Basic Buffer (0.02% BSA, 2 mM DTT, 12 mM MgCl2, 50 mM Tris pH7.5); 10 μL 8 μg/mL NAMPT, and 200 μM PRPP working solution (or PRPP working solution to background wells). 10 μL 100 μM NAM working solution was added to start the reaction. The plate was sealed and incubated for 45 minutes at 37° C. After incubation, 10 μL 20% acetophenone in DMSO, 10 μL 2N KOH, and 20 μL 88% formic acid were added. The plate was sealed and incubated for 30 minutes at 37° C. After incubation, fluorescence at Ex/Em 387/441 was read.
# In each table header, A: NAMPT enzyme inhibitory activity, IC50 (μM); B: Cellular NAD inhibitory activity, IC50 (μM); and C: change in NAD levels in response to test compound, shown as % of NAD activity in the absence of test compound. […] A percentage of 100 percent would indicate no increase or decrease in NAD levels as compared to that measured for untreated control cells, while a percentage of 50 percent would indicate a decrease in NAD levels of 50 percent as compared to that measured for untreated control cells.
# Sequence of NAMPT (P43490 whole entry, species assumed): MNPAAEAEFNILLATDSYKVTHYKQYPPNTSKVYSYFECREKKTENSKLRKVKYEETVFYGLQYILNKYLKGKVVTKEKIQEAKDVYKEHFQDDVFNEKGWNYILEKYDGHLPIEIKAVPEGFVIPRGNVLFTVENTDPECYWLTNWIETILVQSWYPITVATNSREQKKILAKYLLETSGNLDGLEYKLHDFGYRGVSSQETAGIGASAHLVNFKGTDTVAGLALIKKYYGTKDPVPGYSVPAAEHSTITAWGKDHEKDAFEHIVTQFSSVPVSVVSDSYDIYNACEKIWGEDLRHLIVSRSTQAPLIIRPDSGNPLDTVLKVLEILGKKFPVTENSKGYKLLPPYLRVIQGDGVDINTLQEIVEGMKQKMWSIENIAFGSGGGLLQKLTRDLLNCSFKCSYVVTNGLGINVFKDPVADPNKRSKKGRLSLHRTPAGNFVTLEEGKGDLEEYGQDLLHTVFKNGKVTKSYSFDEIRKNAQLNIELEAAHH
row,pIC50,SMILES
1,≤ 4.60,CC(=O)Nc1cccc(-c2nc3ccc(C(=O)N4CCN(C)CC4)cc3nc2-c2cccc(NC(C)=O)c2)c1 [BC20241]
2,≤ 4.60,CN1CCN(C(=O)c2ccc3nc(-c4cccc(CN5CCCC5)c4)c(-c4cccc(CN5CCCC5)c4)nc3c2)CC1 [BC20242]
3,≤ 4.60,CN1CCN(Cc2cccc(-c3nc4ccc(C(=O)N5CCN(C)CC5)cc4nc3-c3cccc(CN4CCN(C)CC4)c3)c2)CC1 [BC20243]
4,≤ 4.60,C#CCNC(=O)c1ccc2nc(-c3ccc(F)cc3)c(-c3cccc(N(C)C)c3)nc2c1 [BC20244]
5,≤ 4.60,COCC(=O)Nc1cccc(-c2nc3ccc(C(=O)N4CCN(C)CC4)cc3nc2-c2ccc(F)cc2)c1 [BC20245]
6,≤ 4.60,CN1CCN(C(=O)c2ccc3nc(-c4cccc(N(C)C)c4)c(-c4ccc(F)cc4)nc3c2)CC1 [BC20246]
7,4.60 to 6.00,C#CCNC(=O)c1ccc2nc(-c3cccc(NS(C)(=O)=O)c3)c(-c3ccc(F)cc3)nc2c1 [BC20247]
8,≤ 4.60,CN1CCN(C(=O)c2ccc3nc(-c4cccc(CN5CCCC5)c4)c(-c4ccc(F)cc4)nc3c2)CC1 [BC20248]
9,≤ 4.60,CN1CCN(Cc2cccc(-c3nc4ccc(C(=O)N5CCN(C)CC5)cc4nc3-c3ccc(F)cc3)c2)CC1 [BC20249]
10,≤ 4.60,O=C(NCc1ccc2nc(-c3ccc(F)cc3)c(-c3ccc(F)cc3)nc2c1)NC1CCCNC1 (stereo not shown) [BC20250]
11,≤ 4.60,CN1CCCC(NC(=O)NCc2ccc3nc(-c4ccc(F)cc4)c(-c4ccc(F)cc4)nc3c2)C1 (stereo not shown) [BC20251]
12,≤ 4.60,CC(=O)N1CCCC(NC(=O)NCc2ccc3nc(-c4ccc(F)cc4)c(-c4ccc(F)cc4)nc3c2)C1 (stereo not shown) [BC20252]
13,≤ 4.60,CS(=O)(=O)N1CCCC(NC(=O)NCc2ccc3nc(-c4ccc(F)cc4)c(-c4ccc(F)cc4)nc3c2)C1 (stereo not shown) [BC20253]
14,≤ 4.60,O=C(Nc1cnc2nc(-c3ccc(F)cc3)c(-c3ccc(F)cc3)nc2c1)NC1CCCNC1 (stereo not shown) [BC20255]
15,4.60 to 6.00,CS(=O)(=O)N1CCCC(NC(=O)Nc2cnc3nc(-c4ccc(F)cc4)c(-c4ccc(F)cc4)nc3c2)C1 (stereo not shown) [BC20256]
16,≤ 4.60,CN1CCN(C(=O)c2ccc3nc(-c4cccc(NS(C)(=O)=O)c4)c(-c4cccc(NS(C)(=O)=O)c4)nc3c2)CC1 [BC20258]
17,≤ 4.60,CN1CCN(C(=O)c2ccc3nc(-c4cccc(CNS(C)(=O)=O)c4)c(-c4cccc(CNS(C)(=O)=O)c4)nc3c2)CC1 [BC20259]
18,≤ 4.60,CN(C)Cc1cccc(-c2nc3ccc(C(=O)N4CCN(C)CC4)cc3nc2-c2cccc(CN(C)C)c2)c1 [BC20260]
19,≤ 4.60,C#CCNC(=O)c1ccc2nc(-c3cccc(CNS(C)(=O)=O)c3)c(-c3cccc(CNS(C)(=O)=O)c3)nc2c1 [BC20261]
20,≤ 4.60,CN1CCN(C(=O)c2ccc3nc(-c4ccc(F)cc4)c(-c4cccc(N(C)C)c4)nc3c2)CC1 [BC20262]
21,≤ 4.60,CN(C)CC(=O)NCc1cccc(-c2nc3cc(C(=O)N4CCN(C)CC4)ccc3nc2-c2ccc(F)cc2)c1 [BC20263]
22,≤ 4.60,COCC(=O)NCc1cccc(-c2nc3cc(C(=O)N4CCN(C)CC4)ccc3nc2-c2ccc(F)cc2)c1 [BC20264]
23,≤ 4.60,CN1CCN(C(=O)c2ccc3nc(-c4ccc(F)cc4)c(-c4cccc(CN5CCCC5)c4)nc3c2)CC1 [BC20265]
24,≤ 4.60,C#CCNC(=O)c1ccc2nc(-c3cccc(NC(=O)CN(C)C)c3)c(-c3ccc(F)cc3)nc2c1 [BC20266]
25,4.60 to 6.00,O=C(NCc1ccc2nc(-c3ccc(F)cc3)c(-c3ccc(F)cc3)nc2c1)c1cccnc1 [BC20267]
26,≤ 4.60,CN1CCCC(NC(=O)Nc2cnc3nc(-c4ccc(F)cc4)c(-c4ccc(F)cc4)nc3c2)C1 (stereo not shown) [BC20269]

row,pIC50,SMILES
1,≤ 4.60,CS(=O)(=O)N1CCC[C@H](CNC(=O)c2ccc3nc(-c4ccc(F)cc4)c(-c4ccc(F)cc4)nc3c2)C1 [BC20270]
2,≤ 4.60,CC(=O)N1CCC[C@H](CNC(=O)c2ccc3nc(-c4ccc(F)cc4)c(-c4ccc(F)cc4)nc3c2)C1 [BC20271]
3,≤ 4.60,CC(=O)NCc1cccc(-c2nc3ccc(C(=O)N4CCN(C)CC4)cc3nc2-c2cccc(CNC(C)=O)c2)c1 [BC20272]
4,≤ 4.60,COCC(=O)NCc1cccc(-c2nc3ccc(C(=O)N4CCN(C)CC4)cc3nc2-c2cccc(CNC(=O)COC)c2)c1 [BC20273]
5,≤ 4.60,C#CCNC(=O)c1ccc2nc(-c3cccc(CNC(C)=O)c3)c(-c3cccc(CNC(C)=O)c3)nc2c1 [BC20274]
6,≤ 4.60,C#CCNC(=O)c1ccc2nc(-c3cccc(CNC(=O)COC)c3)c(-c3cccc(CNC(=O)COC)c3)nc2c1 [BC20275]
7,≤ 4.60,C#CCNC(=O)c1ccc2nc(-c3ccc(F)cc3)c(-c3cccc(CNC(=O)COC)c3)nc2c1 [BC20276]
8,4.60 to 6.00,O=C1N(Cc2cccnc2)CCN1c1ccc2nc(-c3ccc(F)cc3)c(-c3ccc(F)cc3)nc2c1 [BC20277]
9,4.60 to 6.00,O=C(Cc1cccnc1)NCc1ccc2nc(-c3ccc(F)cc3)c(-c3ccc(F)cc3)nc2c1 [BC20278]
10,≤ 4.60,O=C(NC[C@H]1CCCNC1)c1ccc2nc(-c3ccc(F)cc3)c(-c3ccc(F)cc3)nc2c1 [BC20279]
11,4.60 to 6.00,CN1CCC[C@H](CNC(=O)c2ccc3nc(-c4ccc(F)cc4)c(-c4ccc(F)cc4)nc3c2)C1 [BC20280]
12,≤ 4.60,COCC(=O)N1CCC[C@H](CNC(=O)c2ccc3nc(-c4ccc(F)cc4)c(-c4ccc(F)cc4)nc3c2)C1 [BC20281]
13,≤ 4.60,COCCNC(=O)N1CCC[C@H](CNC(=O)c2ccc3nc(-c4ccc(F)cc4)c(-c4ccc(F)cc4)nc3c2)C1 [BC20282]
14,≤ 4.60,CCCC(=O)N1CCC[C@H](CNC(=O)c2ccc3nc(-c4ccc(F)cc4)c(-c4ccc(F)cc4)nc3c2)C1 [BC20283]
15,4.60 to 6.00,CS(=O)(=O)N1CCC[C@H](CNC(=O)NCc2ccc3nc(-c4ccc(F)cc4)c(-c4ccc(F)cc4)nc3c2)C1 [BC20284]
16,4.60 to 6.00,O=C(NCc1ccc2nc(-c3ccc(F)cc3)c(-c3ccc(F)cc3)nc2c1)NC[C@H]1CCCNC1 [BC20285]
17,≤ 4.60,CN(C)CC(=O)Nc1cccc(-c2nc3ccc(C(=O)N4CCN(C)CC4)cc3nc2-c2cccc(NC(=O)CN(C)C)c2)c1 [BC20286]
18,≤ 4.60,C#CCNC(=O)c1ccc2nc(-c3cccc(NS(C)(=O)=O)c3)c(-c3cccc(NS(C)(=O)=O)c3)nc2c1 [BC20288]
19,≤ 4.60,C#CCNC(=O)c1ccc2nc(-c3cccc(CNC(=O)CN(C)C)c3)c(-c3cccc(CNC(=O)CN(C)C)c3)nc2c1 [BC20289]
20,≤ 4.60,CN1CCN(C(=O)c2ccc3nc(-c4cccc(NS(C)(=O)=O)c4)c(-c4ccc(F)cc4)nc3c2)CC1 [BC20290]
21,≤ 4.60,O=C1N(Cc2cccnc2)CCN1c1cnc2nc(-c3ccc(F)cc3)c(-c3ccc(F)cc3)nc2c1 [BC20291]
22,≤ 4.60,CC(C)CC(=O)N1CCC[C@H](CNC(=O)c2ccc3nc(-c4ccc(F)cc4)c(-c4ccc(F)cc4)nc3c2)C1 [BC20292]
23,≤ 4.60,CCCS(=O)(=O)N1CCCC(NC(=O)Nc2cnc3nc(-c4ccc(F)cc4)c(-c4ccc(F)cc4)nc3c2)C1 (stereo not shown) [BC20293]
24,≤ 4.60,CN1CCC[C@H](CNC(=O)NCc2ccc3nc(-c4ccc(F)cc4)c(-c4ccc(F)cc4)nc3c2)C1 [BC20294]
25,≤ 4.60,C#CCCC(=O)N1CCC[C@H](CNC(=O)c2ccc3nc(-c4ccc(F)cc4)c(-c4ccc(F)cc4)nc3c2)C1 [BC20295]
26,≤ 4.60,COCC(=O)NCc1cccc(-c2nc3ccc(C(=O)N4CCN(C)CC4)cc3nc2-c2ccc(F)cc2)c1 [BC20296]
